Measured values published in article PMC5427923, “A novel CCR2 antagonist inhibits atherogenesis in apoE deficient mice by achieving high receptor occupancy” (Scientific Reports, 2017).

Experiments:
CCR2 = experiment: Pharmacokinetics-based prediction of target occupancy; set-up: species or system mouse; settings: calculated/simulated from plasma concentrations, single dose 5 mg/kg i.p., for 24 hours
Experimental: The target occupancy was calculated for each measurement of the drug concentration, according to equation (1), in which [C] is the concentration of the drug in the blood and KD is the drug target affinity.1 TargetOccupancy(%)=[C]/[C]+KD×100%
In addition, a simple mathematical model was used to simulate target occupancy for the observed in vivo pharmacokinetics and in vitro binding kinetics according to the equations in the next section (equations (3–5)).
To determine the maximal value of k off that would prolong the receptor occupancy even further, we used equation (2)[28], in which BF represents the percentage of target occupancy divided by 100 and t 1/2el represents the plasma elimination half-life (0.693/k el). In this case we set BF to 0.90, as 90% represents the minimum value of target occupancy to achieve efficacy. To obtain the elimination rate constant of compound 15a, a linear regression analysis of the natural logarithm of the concentrations versus time was performed, and the slope coefficient was used as the elimination rate constant k el.2 koff<0.693⋅(1−BF)/t1/2el
The concentrations of unbound drug in the blood [C] and target-bound drug [LR] were modeled according to equations (3–5). […]
The concentration of the target-bound drug is calculated according to equation (5):5 d[LR]/dt=kon⋅[C]⋅[Rfree]−koff⋅[LR] […]

murine CCR2 (mCCR2) = molecular target: T1, murine CCR2 (mCCR2) (Mus musculus, UniProt P51683); experiment: [3H]INCB3344 displacement assay on CHO-mCCR2 membranes; format: binding; settings: displacement of 5 nM [3H]INCB3344, CHO-mCCR2 membranes, 25 °C
T1 construct: expressed in transfected cells; host or cells: CHO cells, transient transfection (PEI) with pcDNA3.1+ plasmid; membrane preparation
T1 sequence (P51683 whole entry): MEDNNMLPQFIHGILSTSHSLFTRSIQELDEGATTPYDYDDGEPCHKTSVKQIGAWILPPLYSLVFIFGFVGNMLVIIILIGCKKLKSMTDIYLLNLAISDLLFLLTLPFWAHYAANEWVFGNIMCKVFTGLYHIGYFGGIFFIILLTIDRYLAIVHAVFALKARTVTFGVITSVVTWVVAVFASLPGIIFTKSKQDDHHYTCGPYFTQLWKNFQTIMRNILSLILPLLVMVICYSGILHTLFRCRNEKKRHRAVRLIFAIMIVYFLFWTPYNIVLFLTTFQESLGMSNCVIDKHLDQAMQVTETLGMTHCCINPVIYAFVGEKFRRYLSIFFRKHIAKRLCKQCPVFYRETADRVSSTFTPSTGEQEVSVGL
Experimental: Radioligand binding assays were performed in a 100 µL reaction volume containing 50 mM Tris-HCl buffer (pH 7.4), 5 mM MgCl2, 0.1% 3-[(3-cholamidopropyl)-dimethylammonio]-1-propanesulfonic acid (CHAPS), 5 nM [^3H]INCB3344 and 50 to 60 µg of membrane protein at 25 °C. Non-specific binding was determined with 10 μM of the cold ligand INCB3344. Displacement assays were carried out using 9 concentrations of competing ligand, ranging from 0.1 nM to 100 μM, for 120 min of incubation. The kinetic parameters of 15a were also determined at 25 °C using a competition association assay as previously described, [27]. […] Filter-bound radioactivity was determined by scintillation spectrometry after addition of Microscint scintillation cocktail (Perkin-Elmer, Groningen, the Netherlands). […]
All radioligand binding assays were analyzed using Prism 6.0 (GraphPad software, San Diego, CA, USA). […] Ki values were calculated from IC50 values obtained by non-linear regression analysis of the displacement assays and by using the Cheng-Prusoff equation[47]. Dissociation rate constants k off were determined by fitting the dissociation data using an exponential decay model. […] The kinetic profile of compound 15a was determined by calculation of its kinetic rate index (KRI) value. […] In addition, the RT was calculated by obtaining the reciprocal of the k off. Data obtained from in vivo experiments are expressed as mean ± SEM. […]

hCCR2b = settings: cited from earlier work

Compound: CC(C)[C@]1(C(=O)N2CCc3ccc(C(F)(F)F)cc3C2)CC[C@@H](N[C@@H]2CCc3cc(Br)ccc32)C1 [15a, ((1S,3R)-3-(((R)-5-bromo-2,3-dihydro-1H-inden-1-yl)amino)-1-isopropylcyclopentyl)(7-(trifluoromethyl)-3,4-dihydroisoquinolin-2(1H)-yl)methanone]
- target occupancy (CCR2) (CCR2): > 90%
- Ki (murine CCR2 (mCCR2)): 10.6 nM
- RT (hCCR2b; hCCR2, ref Vilums et al. [24]): 714 min
- lifetime (RT) on hCCR2 (hCCR2b; hCCR2, ref [24]): more than 10 hours
- Ki (hCCR2b; hCCR2, ref [24], read-out: affinity for human CCR2): 2.4 nM
- KRI (hCCR2b; hCCR2b, ref Vilums et al. [24]): 1.7
- Kd (hCCR2b; hCCR2b, ref Vilums et al. [24]): 0.175 nM
- koff (hCCR2b; hCCR2b, ref Vilums et al. [24]): 0.0014 min⁻¹
- kon (hCCR2b; hCCR2b, ref Vilums et al. [24]): 0.008 nM⁻¹ min⁻¹
